The assay addresses Envelope glycoprotein gp160 (Human immunodeficiency virus 1, UniProt Q6QLK5). Description: cell-free HIV fusion peptide-binding blockers – biochemical, uHTS, fluorescence dequenching, […] (AID 1986).

We go through 1 compound from ChEMBL document CHEMBL1201862, “PubChem BioAssay data set” (2004).

Calls of active or inactive are those of the source. No stated cut-off is given here; in the data, actives have a measured IC50 and inactives only a lower limit.

Chain of Envelope glycoprotein gp160 (Q6QLK5 whole entry, the tested form may be a part): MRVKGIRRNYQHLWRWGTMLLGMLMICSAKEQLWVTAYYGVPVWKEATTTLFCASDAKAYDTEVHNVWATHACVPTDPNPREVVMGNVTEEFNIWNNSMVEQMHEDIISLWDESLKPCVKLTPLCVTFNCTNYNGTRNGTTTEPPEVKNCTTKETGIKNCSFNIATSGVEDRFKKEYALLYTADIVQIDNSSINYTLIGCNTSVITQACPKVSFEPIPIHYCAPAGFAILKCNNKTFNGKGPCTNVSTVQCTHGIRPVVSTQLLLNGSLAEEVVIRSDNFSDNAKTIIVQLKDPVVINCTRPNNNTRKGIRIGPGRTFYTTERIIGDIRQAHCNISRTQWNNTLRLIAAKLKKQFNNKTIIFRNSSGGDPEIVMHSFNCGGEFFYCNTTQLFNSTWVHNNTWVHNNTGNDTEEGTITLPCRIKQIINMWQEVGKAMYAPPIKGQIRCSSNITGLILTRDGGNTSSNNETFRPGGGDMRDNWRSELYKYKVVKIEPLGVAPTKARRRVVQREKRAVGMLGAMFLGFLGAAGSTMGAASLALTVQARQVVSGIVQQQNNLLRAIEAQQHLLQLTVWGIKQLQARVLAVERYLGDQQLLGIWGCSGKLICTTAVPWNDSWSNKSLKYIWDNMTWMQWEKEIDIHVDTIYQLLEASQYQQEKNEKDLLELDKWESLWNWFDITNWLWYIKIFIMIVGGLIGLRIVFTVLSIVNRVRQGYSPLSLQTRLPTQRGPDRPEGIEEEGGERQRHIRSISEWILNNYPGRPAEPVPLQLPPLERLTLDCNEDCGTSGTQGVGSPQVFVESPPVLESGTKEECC

In general, IC50 refers to the concentration needed to halve the response being measured. As for `O=C(O)CSc1cc(C(=O)c2ccccc2O)cn2c(=O)c3c4c(sc3nc12)CCCC4`, the IC50 is 20.7 µM (active).
